“And” between values parts separate entries of the source, which are not always exact repeats. Equal entries are not always repeated.

This data set deals with Homo sapiens. Description: Pharmacokinetic parameters for Trandolapril or its active metabolite of Trandolaprilat, after oral or intravenous (IV) administration of Trandolapril. The note with it: in vivo; for Total CL: iv.

Consider `C[C@H](N[C@@H](CCc1ccccc1)C(=O)O)C(=O)N1[C@H](C(=O)O)C[C@H]2CCCC[C@@H]21` [TRANDOLAPRILAT], for which the “Total CL” value came out at 7 L/h. For the setting “po”, the Excretion was 66% and 33%; the F was 70%; the Protein binding is 94% and 65%; the t1/2 ss was 22.5 h.
Regarding `CCOC(=O)[C@H](CCc1ccccc1)N[C@@H](C)C(=O)N1[C@H](C(=O)O)C[C@H]2CCCC[C@@H]21` [TRANDOLAPRIL], the “Total CL” value is 52 L/h. For the same molecule, where the note is “po”, the CL renal was 1 to 4 L/h and the t1/2 was found to be 6 h.

For the origin of these results see ChEMBL document CHEMBL3832053, “DailyMed|setid=94de983f-549b-42ed-9f40-b022aa3bef0f | TRANDOLAPRIL- trandolapril tablet|Carilion Materials Management”.
